# Laboratory results from US11052069B2, “Regimes of FXR agonists” (NOVARTIS AG, priority 2016, dated 2021).
# Read-outs that look alike come from different tables or passages of the source.
# Legend:
# [1] = test system: NASH in adults with liver fibrosis; conditions: human, in vivo; cited from earlier work
# [2] = test system: FGF19, C4, total bile acid; assay: Human study SAD/MAD: PD biomarkers; assay type: in vivo
# Method: (§1) Methods: SAD: Subjects received 5 to 750 mg of Compound A (7 cohorts: 6 active, 2 placebo); subjects from one cohort returned for a second dosing cycle with a high-fat meal (3 active, 1 placebo). MAD: Subjects received 5 to 250 mg of Compound A daily for 14 days (5 cohorts; 6 active, 2 placebo). All adverse events (AEs) were captured, and plasma levels of Compound A and PD biomarkers were determined pre- and post-dosing at various time points.
# STAM mouse model of NASH = assay: Compound A versus OCA in the STAM mouse model of NASH (Example 2); assay type: in vivo; conditions: Compound A 3 to 30 mg/kg vs OCA 25 mg/kg, 3 weeks
# Text: FIGS. 1 and 2 describe an in-vivo efficacy study of Compound A versus OCA in the STAM model of non-alcoholic steatohepatitis for a treatment period of 6-9 weeks. FIG. 2 refers to the results on NAFLD Activity Score; FIG. 1 to Sirius-red positive area.
# NASH was induced for 6 weeks prior to treatment with the indicated compound (and dose). Then, they have been treated with the indicated compound for 3 weeks prior to sacrifice.
# (§2) NAFLD Activity Score from H&E stained liver sections from STAM disease (NASH) animals treated for 3 weeks with the indicated compound or vehicle. Disease was initiated in animals for 6 weeks prior to dosing and then animals were treated with Vehicle-1, Vehicle-2, Compound A (3 to 30 mg/kg) or OCA (25 mg/kg) for 3 weeks. NAS was determined by the method of Kleiner (Kleiner et al. 2005).
# as §2, with “Sirius red” for “NAFLD Activity Score from H&E”, “Quantitative analysis” for “NAS was determined by the method”, “Sirius Red sections were performed using ImageJ software.” for “Kleiner (Kleiner et al. 2005).”
# [3] = Human study SAD/MAD: safety, tolerability and plasma pharmacokinetics; assay type: in vivo
# Method: as §1
# ANIT-induced cholestasis = assay: Rat ANIT-induced cholestasis chronic treatment model; assay type: in vivo
# Method: The efficacious concentration of Compound A was determined by PK/PD modeling from the rat ANIT-induced cholestasis chronic treatment model.
# [4] = test system: STAM model of non-alcoholic steatohepatitis; assay: In vivo efficacy study in the STAM model of non-alcoholic steatohepatitis (Example 1); set-up: species or system C57BL/6 mice
# Method: Steatohepatitis (Treatment period: 6 to 9 wks and 9-12 weeks)
# The study involves 14-day-pregnant C57BL/6 mice. NASH was established by a single subcutaneous injection of 200 μg streptozotocin (Sigma, USA) after birth and feeding with a high fat diet (HFD, 57% kcal fat, CLEA Japan, Japan) ad libitum after 4 weeks of age (day 28±2). Randomization of NASH mice into groups of 12 mice at 6 weeks of age (day 42±2) and groups of 12 mice at 9 weeks of age (day 63±2), the day before the start of treatment, respectively. NASH animals were dosed from age 6-9 weeks (Study 1), or from age 9-12 weeks (Study 2) with either: vehicle, Compound A, OCA or Compound A. A non-disease vehicle-control group of was included in both Study 1 and Study 2. These animals were fed with a normal diet (CE-2; CLEA Japan) ad libitum.
# PK samples were collected and stored at ≤−60° C. Animals were dosed according to the dosing schedule below. Each animal was sacrificed 5 hours after last morning dose on the last day of study treatment (the evening dose of cenicriviroc or vehicle […] that day due to sacrifice).
# Measurements: • The following parameters were measured or monitored daily: individual body weight, survival, clinical signs and behavior of mice. • Pharmacokinetic measurements: PK samples were collected from 4 animals per time point per compound. PK samples were for Compound A at hours 1 and 24 on Day 6 (n=4 per timepoint) for both monotherapy and combination groups. PK samples were taken for Cenicriviroc on Day 10 at hours 2 and 12 (n=4 per timepoint) for both monotherapy and combination groups. Only one PK sample was collected per animal using the first 8 animals per group, per the schedule below:
# Mice were sacrificed at 9 weeks of age (study 1) or at 12 weeks of age (study 2).
# The following samples were collected: plasma, liver (fresh liver samples for gene expression analysis were collected at 5 hr post the last morning (AM) dose for each animal), stool. Organ weight was measured.
# The following biochemical assays were performed: Non-fasting blood glucose in whole blood by Life Check (Eidia, Japan); serum ALT by FUJI DRI-CHEM (Fujifilm, Japan); serum triglyceride; serum MCP-1, RANTES (CCLS) and MIP-1a/MIP-1 quantification by a commercial ELISA kit; liver triglyceride by Triglyceride E-test kit (Wako, Japan); liver hydroxyproline quantification by hydrolysis method; histological analyses for liver section; HE staining and estimation of NAFLD Activity score; Sirius-red staining and estimation of fibrosis area (with and without perivascular space subtracted); oil red staining and estimation of fat deposition area; F4/80 immunohistochemistry staining and estimation of inflammation area; alpha-SMA immunohistochemistry staining and estimation of α-SMA positive area Gene expression assays using total RNA from the liver.
# Statistical tests were performed using one-way ANOVA followed by Dunnett's test and the Mann-Whitney test, as appropriate, for the multiple group comparisons. P values <0.05 are considered statistically significant.
# PBC = conditions: in vivo; cited from earlier work
# [5] = test system: nonalcoholic steatohepatitis patients; conditions: long term administration; cited from earlier work
structure (smiles),measurement,setting,value
"CCCCOCCOc1ccc(-c2ccc3c(c2)/C=C(/C(=O)Nc2ccc([S@@+]([O-])Cc4cncn4CCC)cc2)CCCN3CC(C)C)cc1 [cenicriviroc, (S,E)-8-(4-(2-butoxyethoxy)phenyl)-1-(2-methylpropyl)-N-(4-(((1-propyl-1H-imidazol-5-yl)methyl)sulfinyl)phenyl)-1,2,3,4-tetrahydrobenzo[b]azocine-5-carboxamide]",Adverse effects,[1],can induce fatigue or diarrhea in a small part of the patients
same,Fibrosis,[1],reduction of fibrosis
same,Improvement of NAS,[1],no significant impact
"Cn1nc(C(=O)N(Cc2ccccc2)Cc2ccc(C(=O)O)cc2)c2c1-c1cc(Cl)ccc1OC2 [Compound A, 4-((N-benzyl-8-chloro-1-methyl-1,4-dihydrochromeno[4,3-c]pyrazole-3 carboxamido)methyl)benzoic acid]",plasma FGF19 levels,"[2]; MAD, Day 14",dose-dependent increase
same,plasma FGF19 median Cmax,"[2]; MAD, Day 14, 250 mg",979 pg/mL
same,serum C4 levels,"[2]; MAD, similar dose range",decline
same,total bile acid (TBA) levels,"[2]; MAD, similar dose range",decline
same,FGF19 with increasing doses,[2]; doses even beyond 250 mg,continues to rise
same,Serum FGF15 levels,[2]; in vivo,increased with Compound A treatment in a dose-dependent manner
same,Reduction of fibrosis,STAM mouse model of NASH,to a greater extent than OCA
same,Reduction of hepatic steatosis,STAM mouse model of NASH,to a greater extent than OCA
same,Reduction of hepatocellular ballooning,STAM mouse model of NASH,to a greater extent than OCA
same,Reduction of lobular inflammation,STAM mouse model of NASH,to a greater extent than OCA
same,accumulation ratio,[3]; MAD,mild
same,Steady-state reached,"[3]; MAD, daily for 14 days",≤ 5 days
same,AUC decrease,"[3]; SAD, with high-fat meal",26%
same,Cmax decrease,"[3]; SAD, with high-fat meal",58%
same,Severe drug-related AEs,[3]; any cohort,No severe drug-related AEs were reported
same,Safety and pharmacological activity,[3]; daily doses of 5 mg to 750 mg,safe and pharmacological active
same,SAEs attributed,[3]; daily doses up to 250 mg for 14 days,No SAEs have been attributed
same,Tmax,"[3]; human, plasma, oral, SAD, with high-fat meal, read-out: median Tmax",4 h
same,Cmax,"[3]; human, plasma, oral, SAD, 5-750 mg doses",177 to 12700 ng/mL
same,half-life,"[3]; human, plasma, oral, SAD, 5-750 mg doses, read-out: mean t1/2",11.7 to 23.5 h
same,Tmax,"[3]; human, plasma, oral, SAD, 5-750 mg doses, read-out: median plasma Tmax",1.75 to 3 h
same,Tolerability,[3]; maximum doses tested (750 mg SAD and 250 mg MAD),well tolerated
same,ALT reduction,ANIT-induced cholestasis; 1.5 mg/kg,75%
same,AST reduction,ANIT-induced cholestasis; 1.5 mg/kg,80%
same,GGT reduction,ANIT-induced cholestasis; 1.5 mg/kg,85%
same,ANIT-induced histologic alterations in the liver,"ANIT-induced cholestasis; rat, in vivo",reduced the ANIT-induced histologic alterations in the liver
same,"Ballooning, NAS (mean +/− SD)",[4]; Study 1,1.3 ± 0.8
same,"Ballooning, Score 0 (number of animals/group)",[4]; Study 1,2
same,"Ballooning, Score 1 (number of animals/group)",[4]; Study 1,3
same,"Ballooning, Score 2 (number of animals/group)",[4]; Study 1,5
same,"Fibrosis, NAS (mean +/− SD)",[4]; Study 1,0.51 ± 0.25
same,"Inflammatory infiltrates, Score 0 (number of animals/group)",[4]; Study 1,7
same,"Inflammatory infiltrates, Score 1 (number of animals/group)",[4]; Study 1,2
same,"Inflammatory infiltrates, Score 2 (number of animals/group)",[4]; Study 1,1
same,"Inflammatory infiltrates, Score 3 (number of animals/group)",[4]; Study 1,0
same,NAS (mean +/− SD),"[4]; Study 1, dosed from age 6-9 weeks",2.7 ± 1.1
same,"Ballooning, NAS (mean +/− SD)",[4]; Study 2,0.7 ± 0.8
same,"Ballooning, Score 0 (number of animals/group)",[4]; Study 2,5
same,"Ballooning, Score 1 (number of animals/group)",[4]; Study 2,3
same,"Ballooning, Score 2 (number of animals/group)",[4]; Study 2,2
same,"Fibrosis, NAS (mean +/− SD)",[4]; Study 2,0.55 ± 0.32
same,"Inflammatory infiltrates, Score 0 (number of animals/group)",[4]; Study 2,3
same,"Inflammatory infiltrates, Score 1 (number of animals/group)",[4]; Study 2,1
same,"Inflammatory infiltrates, Score 2 (number of animals/group)",[4]; Study 2,4
same,"Inflammatory infiltrates, Score 3 (number of animals/group)",[4]; Study 2,2
same,NAS (mean +/− SD),"[4]; Study 2, dosed from age 9-12 weeks",2.7 ± 1.1
same,Ballooning compared with the STAM-Vehicle group,[4]; both studies,trend for the reduction of ballooning
same,Fibrosis area compared with the STAM-Vehicle group,[4]; both studies,trend for the reduction of the fibrosis area
same,Inflammatory infiltrates compared with the STAM-Vehicle group,[4]; both studies 1 and 2,significant reduction of Inflammatory infiltrates
same,NAS compared with the STAM-Vehicle group,[4]; both studies 1 and 2,significant reduction in NAS
"C[C@H](CCC(=O)O)[C@H]1CC[C@H]2[C@@H]3[C@@H](O)C[C@@H]4C[C@H](O)CC[C@]4(C)[C@H]3CC[C@]12C [UDCA, Ursodeoxycholic acid]",population that does not respond,PBC,30-40%
"CC[C@H]1[C@@H](O)[C@@H]2[C@H](CC[C@]3(C)[C@@H]([C@H](C)CCC(=O)O)CC[C@@H]23)[C@@]2(C)CC[C@@H](O)C[C@@H]12 [OCA, Obeticholic acid]",Safety concerns,[5],"can be associated with pruritus, as well as with increased LDL cholesterol"
